Source: patent publication US9096593B2, “Compounds and methods for kinase modulation, and indications therefor” (Plexxikon Inc., priority 2009, dated 2015)

Tests used:
[1] = molecular target: BCR-FMS/BaF3 cells (Homo sapiens, UniProt P07333); experiment: BCR-FMS/BaF3 cell proliferation assay (ATPlite); format: cell-based; conditions: read-out: Cell based (IC50 μM) BCR/BaF3 (Fms); BCR-FMS/BaF3 cells, 3 days
Experimental: Compounds are assessed in a variety of cell based assays. For example BCR-FMS/BaF3, BCR-KIT/BaF3, M-NFS-60, M-07e, and BAC1.2F5 cell proliferation assays are used to assess inhibitory activity of Fms or Kit and MV-4-11 cell proliferation assay is used to assess inhibitory activity in Flt-3. […] On day 1, cells are counted, then centrifuged in a conical tube for 5 minutes at 1000 rpm. The supernatant is removed and cells are re-suspended as follows: • BCR-FMS/BaF3 and BCR-KIT/BaF3: resuspend in growth media+1 mg/mL G418 (without WEHI/IL-3) to 2×10^5 cells/mL. • M-NFS-60: resuspend in growth media +62 ng/mL murine M-CSF to 5×10^5 cells/mL. • M-07e: resuspend in growth media +200 ng/mL human SCF to 5×10^5 cells/mL. • BAC1.2F5: resuspend in growth media +36 ng/mL murine M-CSF to 1.4×10^5 cells/mL. • MV-4-11: resuspend in growth media +10% FBS to 5×10^5 cells/mL. […] On day 2, compound at a maximum concentration of 5 mM is serially diluted 1:3 for a total of 8 point titration with DMSO as a control. A 1 μL aliquot of each dilution point is added to 249 μL growth media and 50 μL is added to a well containing cells, providing 10 μM compound for the maximum concentration point. The cells are incubated for 3 days at 37° C. in 5% CO2. […] ATPlite is added to each well as follows: • BCR-FMS/BaF3 and BCR-KIT/BaF3: 25 μL per well. • M-NFS-60: 25 μL per well. • M-07c: 40 μL per well. • BAC1.2F5: 50 μL per well. • MV-4-11: 40 μL per well. The cells are incubated at room temperature for 10 minutes, then luminescence is read on Safire reader. The measured luminescence correlates directly with cell number, such that the reading as a function of compound concentration is used to determine the IC50 value.

[2] = molecular target: Fms kinase (Homo sapiens (Human), UniProt P07333); experiment: Fms kinase biochemical activity assay (AlphaScreen, biotin-(E4Y)10 phosphorylation); conditions: 100 μM ATP; read-out: Biochemical (IC50 μM) Fms
Chain of Fms kinase (P07333 20-972): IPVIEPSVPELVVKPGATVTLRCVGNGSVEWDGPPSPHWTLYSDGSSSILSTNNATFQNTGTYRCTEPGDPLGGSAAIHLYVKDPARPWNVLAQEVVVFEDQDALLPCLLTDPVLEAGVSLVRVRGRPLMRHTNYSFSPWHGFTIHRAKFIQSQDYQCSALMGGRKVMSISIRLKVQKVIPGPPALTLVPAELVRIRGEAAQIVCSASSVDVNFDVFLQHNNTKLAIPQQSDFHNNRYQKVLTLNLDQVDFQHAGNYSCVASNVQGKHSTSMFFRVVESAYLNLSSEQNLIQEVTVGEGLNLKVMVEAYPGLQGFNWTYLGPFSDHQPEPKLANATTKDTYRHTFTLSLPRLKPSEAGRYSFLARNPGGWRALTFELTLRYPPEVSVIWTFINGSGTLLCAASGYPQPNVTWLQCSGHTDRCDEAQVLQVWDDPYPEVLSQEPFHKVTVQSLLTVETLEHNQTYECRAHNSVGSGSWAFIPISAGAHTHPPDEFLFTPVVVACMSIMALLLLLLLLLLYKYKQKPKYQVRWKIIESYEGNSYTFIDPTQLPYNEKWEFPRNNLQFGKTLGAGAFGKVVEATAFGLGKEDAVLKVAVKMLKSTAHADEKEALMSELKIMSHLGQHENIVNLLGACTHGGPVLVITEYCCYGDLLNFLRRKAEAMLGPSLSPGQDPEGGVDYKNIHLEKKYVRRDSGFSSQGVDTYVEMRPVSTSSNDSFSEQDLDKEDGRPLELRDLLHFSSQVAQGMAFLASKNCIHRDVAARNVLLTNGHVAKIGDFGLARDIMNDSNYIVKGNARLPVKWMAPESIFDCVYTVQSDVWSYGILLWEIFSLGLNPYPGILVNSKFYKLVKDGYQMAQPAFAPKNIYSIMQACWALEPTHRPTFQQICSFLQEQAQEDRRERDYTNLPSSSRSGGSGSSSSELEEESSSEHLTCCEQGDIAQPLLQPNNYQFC
Experimental: In one assay the biochemical activity IC50 values are determined with respect to inhibition of Fms kinase activity, where inhibition of phosphorylation of a peptide substrate is measured as a function of compound concentration. Compounds to be tested, dissolved in DMSO (1 μL), are added to a white 384-well plate (Costar #3705). Working stocks of Fms kinase (Invitrogen #PV3249), biotin-(E4Y)10 substrate (Upstate Biotech, Cat#12-440), and ATP (Sigma, Cat#A-3377) are prepared in 25 mM Hepes pH 7.5, 0.5 mM MgCl2, 2 mM MnCl2, 2 mM DTT, 0.01% BSA, and 0.01% Tween-20. All components are added to the 384-well plate for a final concentration of 1 ng/well Fms, 30 nM biotin-(E4Y)10 (Upstate Biotechnology) and 100 μM ATP in a volume of 20 μL. Each sample is at 5% DMSO. The plate is then incubated for 20 minutes at 30° C. Just before use, working stocks of donor and acceptor beads from the AlphaScreen PY20 Detection Kit (PerkinElmer, Cat#676601M) are prepared in 25 mM Hepes pH 7.5, pH 7.4, 100 mM EDTA, 0.01% BSA. To stop the reaction, the plate is uncovered in the dark and 5 μL of Donor Beads solution (Streptavidin beads) is added to each well. The plate is incubated at room temperature for 20 minutes. Five microliters of Acceptor Beads solution (PY20 coated beads) are then added to each well. The final concentration of each bead is 10 μg/mL. The plates are incubated at room temperature for 60 minutes. Fluorescence signal is recorded on the Envision reader. […] The signal vs. compound concentration is used to determine the IC50.

[3] = molecular target: Flt-3 kinase (Homo sapiens (Human), UniProt P36888); experiment: Flt-3 kinase biochemical activity assay (AlphaScreen, biotin-(E4Y)10 phosphorylation); conditions: 100 μM ATP
Chain of Flt-3 kinase (P36888 27-993): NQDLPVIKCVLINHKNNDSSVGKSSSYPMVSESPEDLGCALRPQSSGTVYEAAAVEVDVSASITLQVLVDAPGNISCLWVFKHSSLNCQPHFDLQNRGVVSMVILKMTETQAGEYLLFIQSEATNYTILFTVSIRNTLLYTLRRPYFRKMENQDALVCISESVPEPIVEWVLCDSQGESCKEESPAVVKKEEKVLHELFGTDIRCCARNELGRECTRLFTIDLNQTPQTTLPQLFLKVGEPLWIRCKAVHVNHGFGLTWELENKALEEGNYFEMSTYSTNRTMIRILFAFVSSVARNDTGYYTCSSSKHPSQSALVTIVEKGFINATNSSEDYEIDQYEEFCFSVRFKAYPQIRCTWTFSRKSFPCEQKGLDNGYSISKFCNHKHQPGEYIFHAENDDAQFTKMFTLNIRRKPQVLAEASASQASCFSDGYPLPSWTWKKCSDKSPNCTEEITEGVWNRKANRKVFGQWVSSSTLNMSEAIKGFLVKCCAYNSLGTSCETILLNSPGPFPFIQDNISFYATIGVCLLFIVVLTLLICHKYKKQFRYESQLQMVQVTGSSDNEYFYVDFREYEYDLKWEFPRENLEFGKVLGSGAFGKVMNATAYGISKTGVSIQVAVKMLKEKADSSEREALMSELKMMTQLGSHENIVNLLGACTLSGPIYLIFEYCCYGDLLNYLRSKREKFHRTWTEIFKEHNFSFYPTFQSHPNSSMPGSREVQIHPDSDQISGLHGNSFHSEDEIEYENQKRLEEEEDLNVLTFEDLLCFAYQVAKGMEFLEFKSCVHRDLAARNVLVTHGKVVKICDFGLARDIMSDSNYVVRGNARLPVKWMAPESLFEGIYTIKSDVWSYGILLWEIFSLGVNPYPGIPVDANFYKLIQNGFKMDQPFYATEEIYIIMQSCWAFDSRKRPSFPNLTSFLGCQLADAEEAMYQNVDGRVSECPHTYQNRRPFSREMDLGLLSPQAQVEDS
Experimental: In one assay the biochemical activity IC50 values are determined with respect to inhibition of Flt-3 kinase activity, where inhibition of phosphorylation of a peptide substrate is measured as a function of compound concentration. Compounds to be tested, dissolved in DMSO (1 μL), are added to a white 384-well plate (Costar #3705). Working stocks of Flt-3 kinase (Invitrogen), biotin-(E4Y)10 substrate (Upstate Biotech, Cat#12-440), and ATP (Sigma, Cat#A-3377) are prepared in 25 mM Hepes pH 7.5, 5 mM MgCl2, 5 mM MnCl2, 1 mM DTT, and 0.01% Tween-20. All components are added to the 384-well plate for a final concentration of 1 ng/well Flt-3, 30 nM biotin-(E4Y)10 and 100 μM ATP in a volume of 20 μL. Each sample is at 5% DMSO. The plate is then incubated for 1 hour at room temperature. Just before use, working stocks of donor and acceptor beads from the AlphaScreen PY20 Detection Kit (PerkinElmer, Cat#676601M) are prepared in 25 mM Hepes pH 7.5, pH 7.4, 100 mM EDTA. 0.3% BSA. To stop the reaction, the plate is uncovered in the dark and 5 μL of Donor Beads solution (Streptavidin beads) is added to each well. The plate is incubated at room temperature for 20 minutes. Five microliters of Acceptor Beads solution (PY20 coated beads) are then added to each well. The final concentration of each bead is 10 μg/mL. The plates are incubated at room temperature for 60 minutes. Fluorescence signal is recorded on the Envision reader. Phosphorylated substrate results in binding of the PY20 antibody and association of the donor and acceptor beads such that signal correlates with kinase activity. The signal vs. compound concentration is used to determine the IC50.

Measured: IC50

Chain of BCR-FMS/BaF3 cells (P07333 20-972 limits assumed, change not shown): as the sequence (P07333 20-972) above

FC(F)(F)c1cnc2[nH]cc(Cc3ccc(NCc4ccc(C(F)(F)F)nc4)nc3)c2c1 [Compound P-1644, (6-Trifluoromethyl-pyridin-3-ylmethyl)-[5-(5-trifluoromethyl-1H-pyrrolo[2,3-b]pyridin-3-ylmethyl)-pyridin-2-yl]-amine]
< 0.1 µM: all assays above

COc1ncc(CNc2ccc(Cc3c[nH]c4ncc(C(F)(F)F)cc34)c(F)n2)cc1F [Compound P-1646, (5-Fluoro-6-methoxy-pyridin-3-ylmethyl)-[6-fluoro-5-(5-trifluoromethyl-1H-pyrrolo[2,3-b]pyridin-3-ylmethyl)-pyridin-2-yl]-amine]
< 0.1 µM: all assays above

Fc1cc(CNc2ncc(Cc3c[nH]c4ncc(Cl)cc34)cn2)cc(C(F)(F)F)c1 [Compound P-2009, [5-(5-Chloro-1H-pyrrolo[2,3-b]pyridin-3-ylmethyl)-pyrimidin-2-yl]-(3-fluoro-5-trifluoromethyl-benzyl)-amine]
< 0.1 µM: all assays above
